Source: patent publication US20160084824A1, “DRUG DISCOVERY METHODS INVOLVING A PRECLNICAL, IN VITRO ISOLATED GASTROINTESTINAL EPITHELIAL STEM CELL-LIKE PROGENITOR CELL SYSTEM” (AlfaGene Bioscience, Inc., priority 2008, published 2016)

Assays:
[1] = tested on: HIPEC monolayer derived from small intestinal segment (A2J1)
[2] = cited from earlier work
[3] = tested on: IL-8 production by HIPEC cells; test: IL-8 production by HIPECs, ELISA; assay type: cell-based, human; conditions: for IL-8 production: 5-ASA 1-10 μg/ml in culture medium
Procedure: Human gastrointestinal epithelial stem cell-like progenitor cells were isolated from a normal segment of the large intestine and a segment of the large intestine in a diseased state (such as a segment having ulcerative colitis). Epithelial monolayers were grown from these progenitor crypt cells on the appropriate BSME as described above. The effects of 5-ASA on spontaneous, LPS, or IFN-γ stimulated IL-8 production were assessed on HIPEC cells cultured in the presence or absence of either LPS or IFN-γ and 5-ASA (1-10 μg/ml). The level of IL-8 production was measured by ELISA.

[4] = tested on: HGISC-derived primary epithelial cell line A2J1; test: Cellular toxicity of SN-38, MTT viability assay, A2J1; assay type: cell-based, human; conditions: A2J1 cells; increasing amounts of SN-38
Procedure: (§1) Briefly, HGISC-derived primary epithelial cell lines (A2J1 and SOJ2) and the malignant colonic adenocarcinoma cell line (HT29) were cultured, as described above in Examples 1A and 1B in medium containing different cytotoxic levels of the irinotecan metabolite 7-ethyl-10-hydroxy-20(S)-camptothecin (SN-38). […] Each cell culture was assessed for viability utilizing the MIT assay.
(§2) Yellow MTT (3-(4,5-Dimethylthiazol-2-yl)-2,5-diphenyltetrazolium bromide, a tetrazole) is reduced to purple formazan in living cells. A solubilization solution (usually either dimethyl sulfoxide, an acidified ethanol solution, or a solution of the detergent sodium dodecyl sulfate in diluted hydrochloric acid) is added to dissolve the insoluble purple formazan product into a colored solution. The absorbance of this colored solution may be quantified by measuring at a certain wavelength (usually between 500 and 600 nm) using a spectrophotometer. The absorption maximum is dependent on the solvent employed. The MTT assay may be used to determine cytotoxicity of materials, since those materials that result in cell toxicity, and therefore metabolic dysfunction, yield decreased performance in the assay.

[5] = tested on: malignant colonic adenocarcinoma cell line (HT29); test: Cellular toxicity of SN-38, MTT viability assay, HT29; assay type: cell-based, human; conditions: HT29 cells; increasing amounts of SN-38
Procedure: as §1, §2

[6] = tested on: HGISC-derived primary epithelial cell line SOJ2; test: Cellular toxicity of SN-38, MTT viability assay, SOJ2; assay type: cell-based, human; conditions: SOJ2 cells; increasing amounts of SN-38
Procedure: as §1, §2

For `CC(C)NCC(O)COc1cccc2ccccc12` (stereo not drawn) [propranolol], the “permeability through small intestine (A2J1) compared with large intestine (5A)” value [1] is listed as “greater than through large intestine (5A)”, the absorption ([2]; administered in vivo) is listed as “absorbed rapidly and completely” and the bioavailability ([2]; due to extensive first-pass metabolism) is listed as “variable bioavailability”.
With “IFN-γ: cytokine produced predominantly by natural killer T cells as part of the innate immune response” the “effect of stimulation on spontaneous IL-8 production” value ([3]; HIPECs from normal controls and from patients with IBS) was “moderately enhanced”.
With `Nc1ccc(O)c(C(=O)O)c1` [5-ASA, 5-aminosalicyclic acid] the IL-8 production ([3]; IBS HIPECs) was “suppressed” and the IL-8 production ([3]; normal HIPECs) was “suppressed”.
In the case of `CCc1c2c(nc3ccc(O)cc13)-c1cc3c(c(=O)n1C2)COC(=O)[C@]3(O)CC` [SN-38, 7-ethyl-10-hydroxy-20(S)-camptothecin], the “percent viability (MTT)” value [4] is reported as 0%, the “percent viability (MTT)” value [5] is reported as “unaffected” and the “percent viability (MTT)” value [6] is reported as “above 50%”.
